Data as given in patent US20240158348A1, “HERBICIDAL CYCLIC AMIDES N-SUBSTITUTED WITH A HALOALKYLSULFONYLANILIDE GROUP” (FMC Corporation, priority 2021, published 2024).

Columns and labels:
Type in all cases: in vivo
[1] = system: blackgrass (Alopecurus myosuroides); assay: Test C preemergence, blackgrass; details: 0 is no effect, 100 is complete control
How it was run: (§1)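 Pre: soil sprayed at seeding. Post: seedlings treated at 1–2 leaves (2–10 cm). Vehicle non-phytotoxic solvent mix with surfactant; loam–sand medium; greenhouse; visual injury read at 10 or 12 days, scale 0–100.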

corn (Zea mays) [2] = assay: Test C preemergence, corn; details: 0 is no effect, 100 is complete control
How it was run: (§2)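 Herbicidal effect was estimated visually on a 0–100 scale 10 or 12 days after spraying. Formulation: non-phytotoxic solvent mixture with surfactant. Timing: directed soil spray after sowing, or postemergence on seedlings bearing one or two leaves.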

[3] = system: foxtail, giant (giant foxtail, Setaria faberi); assay: Test C preemergence, giant foxtail; details: 0 is no effect, 100 is complete control
How it was run: as §1

[4] = system: goosegrass (Eleusine indica); assay: Test C preemergence, goosegrass; details: 0 is no effect, 100 is complete control
How it was run: as §2

kochia (Bassia scoparia) [5] = assay: Test C preemergence, kochia; details: 0 is no effect, 100 is complete control
How it was run: as §1

[6] = system: oat, wild (wild oat, Avena fatua); assay: Test C preemergence, wild oat; details: 0 is no effect, 100 is complete control
How it was run: as §1

[7] = system: pigweed, palmer (palmer amaranth, Amaranthus palmeri); assay: Test C preemergence, palmer amaranth; details: 0 is no effect, 100 is complete control
How it was run: as §1

[8] = system: ragweed (common ragweed, Ambrosia artemisiifolia); assay: Test C preemergence, ragweed; details: 0 is no effect, 100 is complete control
How it was run: as §2

[9] = system: ryegrass, Italian (Italian ryegrass, Lolium multiflorum); assay: Test C preemergence, Italian ryegrass; details: 0 is no effect, 100 is complete control
How it was run: as §1

soybean (Glycine max) [10] = assay: Test C preemergence, soybean; details: 0 is no effect, 100 is complete control
How it was run: as §1

[11] = system: wheat (Triticum aestivum); assay: Test C preemergence, wheat; details: 0 is no effect, 100 is complete control
[12] = system: blackgrass (Alopecurus myosuroides); assay: Test C postemergence, blackgrass; details: 31 g ai/ha Postemergence; visual injury, 0 to 100 scale (0 no effect, 100 complete control)
How it was run: as §1

corn (Zea mays) [13] = assay: Test C postemergence, corn
[14] = system: foxtail, giant (giant foxtail, Setaria faberi); assay: Test C postemergence, giant foxtail
[15] = system: goosegrass (Eleusine indica); assay: Test C postemergence, goosegrass
How it was run: as §1

kochia (Bassia scoparia) [16] = assay: Test C postemergence, kochia
How it was run: as §1

[17] = system: oat, wild (wild oat, Avena fatua); assay: Test C postemergence, wild oat
[18] = system: pigweed, palmer (palmer amaranth, Amaranthus palmeri); assay: Test C postemergence, palmer amaranth
How it was run: as §1

[19] = system: ragweed (common ragweed, Ambrosia artemisiifolia); assay: Test C postemergence, ragweed
How it was run: as §1

[20] = system: ryegrass, Italian (Italian ryegrass, Lolium multiflorum); assay: Test C postemergence, Italian ryegrass
How it was run: as §1

soybean (Glycine max) [21] = assay: Test C postemergence, soybean
[22] = system: wheat (Triticum aestivum); assay: Test C postemergence, wheat
How it was run: as §1

[23] = system: galium (catchweed bedstraw, Galium aparine); assay: Test C postemergence, galium
[24] = system: horseweed (Erigeron canadensis); assay: Test C postemergence, horseweed
How it was run: as §1

[25] = system: barnyardgrass (Echinochloa crusgalli); assay: Test D flooded paddy test, barnyardgrass; set-up: key: 0 = no effect, 100 = complete control; details: 250 g ai/ha, Flood; applied to paddy water at 2-leaf stage; visual rating after 13 days; scale 0 (no effect) to 100 (complete control)
How it was run: (§3)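 Plants were grown to the 2-leaf stage, then pots were flooded to 3 cm above soil and compounds applied directly into the paddy water, with that depth held throughout. After 13 days in a greenhouse, injury was visually rated against untreated controls on a 0–100 scale (0 no effect, 100 complete control).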

[26] = system: ducksalad (Heteranthera limosa); assay: Test D flooded paddy test, ducksalad; set-up: key: 0 = no effect, 100 = complete control; details: 250 g ai/ha, Flood; applied to paddy water at 2-leaf stage; visual rating after 13 days; scale 0 (no effect) to 100 (complete control)
How it was run: as §3

rice (Oryza sativa) = assay: Test D flooded paddy test, rice; set-up: key: 0 = no effect, 100 = complete control; details: 250 g ai/ha, Flood; applied to paddy water at 2-leaf stage; visual rating after 13 days; scale 0 (no effect) to 100 (complete control)
How it was run: as §3

[27] = system: sedge, umbrella (small-flower umbrella sedge, Cyperus difformis); assay: Test D flooded paddy test, umbrella sedge; set-up: key: 0 = no effect, 100 = complete control; details: 250 g ai/ha, Flood; applied to paddy water at 2-leaf stage; visual rating after 13 days; scale 0 (no effect) to 100 (complete control)
How it was run: as §3

[28] = system: blackgrass (Alopecurus myosuroides); assay: Test C postemergence, blackgrass; details: 125 g ai/ha Postemergence; 0 is no effect, 100 is complete control
[29] = 31 g ai/ha Postemergence, visual injury, 0 to 100 scale (0 no effect, 100 complete control)
[30] = 125 g ai/ha Postemergence, 0 is no effect, 100 is complete control

Structure (SMILES): CCCC(=O)OCN(c1cc(N2CCC(OC3CC3)C2=O)c(C)cc1C)S(=O)(=O)C(F)(F)F (stereo not shown) [Compound 20]
- Plant response rating (0 to 100 scale), Blackgrass ([1]; 31 g ai/ha Preemergence): 80
- Plant response rating (0 to 100 scale), Blackgrass ([1]; 125 g ai/ha Preemergence): 100
- Plant response rating (0 to 100 scale), Corn (corn (Zea mays) [2]; 31 g ai/ha Preemergence): 60
- Plant response rating (0 to 100 scale), Corn (corn (Zea mays) [2]; 125 g ai/ha Preemergence): 90
- Plant response rating (0 to 100 scale), Foxtail, Giant ([3]; 31 g ai/ha Preemergence): 90
- Plant response rating (0 to 100 scale), Foxtail, Giant ([3]; 125 g ai/ha Preemergence): 100
- Plant response rating (0 to 100 scale), Goosegrass ([4]; 31 g ai/ha Preemergence): 100
- Plant response rating (0 to 100 scale), Goosegrass ([4]; 125 g ai/ha Preemergence): 100
- Plant response rating (0 to 100 scale), Kochia (kochia (Bassia scoparia) [5]; 31 g ai/ha Preemergence): 80
- Plant response rating (0 to 100 scale), Kochia (kochia (Bassia scoparia) [5]; 125 g ai/ha Preemergence): 100
- Plant response rating (0 to 100 scale), Oat, Wild ([6]; 31 g ai/ha Preemergence): 60
- Plant response rating (0 to 100 scale), Oat, Wild ([6]; 125 g ai/ha Preemergence): 100
- Plant response rating (0 to 100 scale), Pigweed, Palmer ([7]; 31 g ai/ha Preemergence): 90
- Plant response rating (0 to 100 scale), Pigweed, Palmer ([7]; 125 g ai/ha Preemergence): 100
- Plant response rating (0 to 100 scale), Ragweed ([8]; 31 g ai/ha Preemergence): 60
- Plant response rating (0 to 100 scale), Ragweed ([8]; 125 g ai/ha Preemergence): 90
- Plant response rating (0 to 100 scale), Ryegrass, Italian ([9]; 31 g ai/ha Preemergence): 100
- Plant response rating (0 to 100 scale), Ryegrass, Italian ([9]; 125 g ai/ha Preemergence): 100
- Plant response rating (0 to 100 scale), Soybean (soybean (Glycine max) [10]; 31 g ai/ha Preemergence): 70
- Plant response rating (0 to 100 scale), Soybean (soybean (Glycine max) [10]; 125 g ai/ha Preemergence): 90
- Plant response rating (0 to 100 scale), Wheat ([11]; 31 g ai/ha Preemergence): 70
- Plant response rating (0 to 100 scale), Wheat ([11]; 125 g ai/ha Preemergence): 100
- Blackgrass plant response rating [12]: 90
- Corn plant response rating (corn (Zea mays) [13]; [29]): 90
- Plant response rating (0 to 100 scale), Corn (corn (Zea mays) [13]; [30]): 90
- Foxtail, Giant plant response rating [14, 29]: 80
- Plant response rating (0 to 100 scale), Foxtail, Giant [14, 30]: 90
- Goosegrass plant response rating [15, 29]: 90
- Plant response rating (0 to 100 scale), Goosegrass [15, 30]: 90
- Kochia plant response rating (kochia (Bassia scoparia) [16]; [29]): 70
- Plant response rating (0 to 100 scale), Kochia (kochia (Bassia scoparia) [16]; [30]): 80
- Oat, Wild plant response rating [17, 29]: 30
- Plant response rating (0 to 100 scale), Oat, Wild [17, 30]: 80
- Pigweed, Palmer plant response rating [18, 29]: 50
- Plant response rating (0 to 100 scale), Pigweed, Palmer [18, 30]: 80
- Ragweed plant response rating [19, 29]: 80
- Plant response rating (0 to 100 scale), Ragweed [19, 30]: 90
- Ryegrass, Italian plant response rating [20, 29]: 60
- Plant response rating (0 to 100 scale), Ryegrass, Italian [20, 30]: 100
- Soybean plant response rating (soybean (Glycine max) [21]; [29]): 60
- Plant response rating (0 to 100 scale), Soybean (soybean (Glycine max) [21]; [30]): 70
- Wheat plant response rating [22, 29]: 70
- Plant response rating (0 to 100 scale), Wheat [22, 30]: 70
- Galium plant response rating [23, 29]: 90
- Plant response rating (0 to 100 scale), Galium [23, 30]: 100
- Horseweed plant response rating [24, 29]: 60
- Plant response rating (0 to 100 scale), Horseweed [24, 30]: 90
- Plant response rating, Barnyardgrass [25]: 90
- Plant response rating, Ducksalad [26]: 90
- Plant response rating, Rice (rice (Oryza sativa)): 15
- Plant response rating, Sedge, Umbrella [27]: 98
- Plant response rating (0 to 100 scale), Blackgrass [28]: 90
